≈ marks a conversion by molar mass, not a printed value.
Key:
[1] = system: Bacillus subtilis; assay: Antibacterial activity against Bacillus subtilis after 24 hrs by agar dilution method; assay type: functional
[2] = system: A549; assay: Cytotoxicity against human A549 cells after 72 hrs by MTT assay; assay type: functional, cell-based; conditions: A549, 72 h
[3] = system: P388; assay: Cytotoxicity against mouse P388 cells after 24 hrs by SRB assay; assay type: functional, cell-based; conditions: P388, 24 h
[4] = system: Radical scavenging activity; assay: Antioxidant activity assessed as DPPH free radical scavenging activity after 30 mins; assay type: functional
[5] = system: HL-60; assay: Cytotoxicity against human HL60 cells after 24 hrs by SRB assay; assay type: functional, cell-based; conditions: HL-60, 24 h
[6] = system: Candida albicans; assay: Antifungal activity against Candida albicans after 24 hrs by agar dilution method; assay type: functional
[7] = system: Escherichia coli; assay: Antibacterial activity against Escherichia coli after 24 hrs by agar dilution method; assay type: functional
[8] = system: Bel-7402; assay: Cytotoxicity against human Bel7402 cells after 72 hrs by MTT assay; assay type: functional, cell-based; conditions: Bel-7402, 72 h

| Structure (SMILES) | MIC [1] | IC50 [2] | IC50 [3] | IC50 [4] | IC50 [5] | MIC [6] | MIC [7] | IC50 [8] |
| --- | --- | --- | --- | --- | --- | --- | --- | --- |
| C=C(CCCCCCCCC)C(=O)CC/C=C/[C@@H](O)[C@H](CO[C@@H]1O[C@H](CO)[C@@H](O)[C@H](O)[C@H]1O)NC(=O)[C@H](O)/C=C/CCCCCCCCCCCCCC [ALTERNAROSIDE A] | 130 µM (≈ 99.9 µg/mL) | > 100 µM | > 100 µM | > 500 µM | > 100 µM | 260 µM (≈ 200 µg/mL) | 130 µM (≈ 99.9 µg/mL) | > 100 µM |
| CCCCCCCCCCCCCC/C=C/[C@@H](O)C(=O)N[C@@H](CO[C@@H]1O[C@H](CO)[C@@H](O)[C@H](O)[C@H]1O)[C@H](O)/C=C/CC/C=C(\C)CCCCCCCC [ALTERNAROSIDE B] | 68 µM (≈ 50.3 µg/mL) | > 100 µM | > 100 µM | > 500 µM | > 100 µM | 270 µM (≈ 200 µg/mL) | 135 µM (≈ 99.9 µg/mL) | > 100 µM |
| CCCCCCCCC/C=C\CC/C=C/[C@@H](O)[C@H](CO[C@@H]1O[C@H](CO)[C@@H](O)[C@H](O)[C@H]1O)NC(=O)[C@H](O)/C=C/CCCCCCCCCCCCCC [ALTERNAROSIDE C] | 135 µM (≈ 99.9 µg/mL) | > 100 µM | > 100 µM | > 500 µM | > 100 µM | 270 µM (≈ 200 µg/mL) | 135 µM (≈ 99.9 µg/mL) | > 100 µM |
| O=C1O[C@H]([C@@H](O)CO)C(O)=C1O [ASCORBIC ACID] | – | – | – | 22 µM | – | – | – | – |
| O=C(O)c1cn(C2CC2)c2cc(N3CCNCC3)c(F)cc2c1=O [CIPROFLOXACIN LACTATE] | 7.42 µM | – | – | – | – | – | – | – |
| COc1cc([C@@H]2c3cc4c(cc3[C@@H](O[C@@H]3O[C@@H]5CO[C@@H](C)O[C@H]5[C@H](O)[C@H]3O)[C@H]3COC(=O)[C@H]23)OCO4)cc(OC)c1O [ETOPOSIDE] | – | 0.63 µM | 0.05 µM | – | 0.042 µM | – | – | 1.03 µM |
| OC(Cn1cncn1)(Cn1cncn1)c1ccc(F)cc1F [FLUCONAZOLE] | – | – | – | – | – | 5.1 µM (≈ 1.56 µg/mL) | – | – |
